# Reference: patent US20240027453A1, “METHOD FOR DETECTION AND QUANTITATIVE MONITORING OF INFECTIONS WITH HERPESVIRUSES” (The Trustees of Princeton University, priority 2020, published 2024)
# Like-named read-outs stand apart in the source and are kept apart here.
# Test system: HCMV
# Type: cell-based
# Outline: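 Viral protein levels come from parallel reaction monitoring on a Q Exactive HF: trypsin digests of infected-cell lysates, quantified as summed transition areas, normalized to host control peptides, averaged across peptides per protein. Cells were MRC5 fibroblasts, infected at MOI 3 (HSV-1 or HCMV) after 12 h compound pretreatment, with re-dosing every 24 h.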
# 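Wherever TRM2 (P16792) protein level is given: each peptide scaled to its average across all runs.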
# 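Wherever UL29 (P16764) protein level is given: each peptide scaled to its average across all runs.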
# 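Wherever UL31 (P16848) protein level is given: each peptide scaled to its average across all runs.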
# 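Wherever UL88 (P16731) protein level is given: each peptide scaled to its average across all runs.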
compound,measurement,setting,value
Nc1c(S(=O)(=O)c2ccccc2)c2nc3ccccc3nc2n1-c1ccc(F)cc1 [CAY10602],GO (P16750) protein level,"timepoint 72, L",0.05989
same,IR11 (P16809) protein level,"timepoint 72, L",0.4344
same,MCP (P16729) protein level,"timepoint 72, L",0.02624
same,SCP (Q7M6N6) protein level,"timepoint 72, L",0.015
same,TRM2 (P16792) protein level,"timepoint 72, L",0.0795
same,UL22A (P16845) protein level,"timepoint 72, L",0.215
same,UL25 (P16761) protein level,"timepoint 72, L",0.096
same,UL29 (P16764) protein level,"timepoint 72, L",0.506
same,UL30 (P16765) protein level,"timepoint 72, L",0.1431
same,UL31 (P16848) protein level,"timepoint 72, L",0.1447
same,UL43 (P16781) protein level,"timepoint 72, L",0.03176
same,UL52 (P16793) protein level,"timepoint 72, L",0.1191
same,UL76 (P16725) protein level,"timepoint 72, L",0.03192
same,UL80 (P16753) protein level,"timepoint 72, L",0.06052
same,UL82 (P06726) protein level,"timepoint 72, L",0.1042
same,UL87 (P16730) protein level,"timepoint 72, L",0.09029
same,UL88 (P16731) protein level,"timepoint 72, L",0.1686
same,UL94 (P16800) protein level,"timepoint 72, L",0.1145
same,UL99 (P13200) protein level,"timepoint 72, L",0.05513
same,UL103 (P16734) protein level,"timepoint 72, L",0.09275
same,UL117 (P16770) protein level,"timepoint 72, L",0.3151
same,gH (P12824) protein level,"timepoint 72, L",0.1032
same,gL (P16832) protein level,"timepoint 72, L",0.08246
same,gM (P16733) protein level,"timepoint 72, L",0.06242
same,gN (P16795) protein level,"timepoint 72, L",0.1122
same,IR10 (P16808) protein level,"timepoint 72, LL",0.03558
same,IR12 (P16810) protein level,"timepoint 72, LL",0.4497
same,TRM3 (P16732) protein level,"timepoint 72, LL",0.03658
same,TRX1 (P16783) protein level,"timepoint 72, LL",0.02099
same,TRX2 (P16728) protein level,"timepoint 72, LL",0.02193
same,UL24 (P16760) protein level,"timepoint 72, LL",0.1166
same,UL40 (P16780) protein level,"timepoint 72, LL",0.4727
same,UL47 (P16784) protein level,"timepoint 72, LL",0.06008
same,UL49 (P16786) protein level,"timepoint 72, LL",0.1643
same,UL69 (P16749) protein level,"timepoint 72, LL",0.2062
same,UL70 (P17149) protein level,"timepoint 72, LL",0.4194
same,UL83 (P06725) protein level,"timepoint 72, LL",0.02048
same,UL132 (P69338) protein level,"timepoint 72, LL",0.1287
same,US15 (P09718) protein level,"timepoint 72, LL",0.4326
same,CVC2 (P16726) protein level,"timepoint 96, DE",0.1714
same,DBP (P17147) protein level,"timepoint 96, DE",0.7941
same,HELI (P16736) protein level,"timepoint 96, DE",0.8017
same,IR01 (P09710) protein level,"timepoint 96, DE",0.4575
same,NEC1 (P16794) protein level,"timepoint 96, DE",0.0869
same,NEC2 (P16791) protein level,"timepoint 96, DE",0.2886
same,RIR1 (P16782) protein level,"timepoint 96, DE",0.2098
same,TRM1 (P16724) protein level,"timepoint 96, DE",0.3134
same,UL4 (P17146) protein level,"timepoint 96, DE",0.2128
same,UL26 (P16762) protein level,"timepoint 96, DE",0.2828
same,UL32 (P08318) protein level,"timepoint 96, DE",0.1168
same,UL34 (P16812) protein level,"timepoint 96, DE",0.2231
same,UL35 (P16766) protein level,"timepoint 96, DE",0.1252
same,UL38 (P16779) protein level,"timepoint 96, DE",0.6672
same,UL44 (P16790) protein level,"timepoint 96, DE",0.176
same,UL48 (P16785) protein level,"timepoint 96, DE",0.2807
same,UL54 (P08546) protein level,"timepoint 96, DE",0.9075
same,UL71 (P16823) protein level,"timepoint 96, DE",0.4754
same,UL78 (P16751) protein level,"timepoint 96, DE",0.4235
same,UL84 (P16727) protein level,"timepoint 96, DE",0.2328
same,UL95 (P16801) protein level,"timepoint 96, DE",0.312
same,UL96 (P16787) protein level,"timepoint 96, DE",0.4112
same,UL97 (P16788) protein level,"timepoint 96, DE",0.3037
same,UL98 (P16789) protein level,"timepoint 96, DE",0.4674
same,UL102 (P16827) protein level,"timepoint 96, DE",0.9006
same,UL104 (P16735) protein level,"timepoint 96, DE",0.3067
same,UL112/UL113 (P17151) protein level,"timepoint 96, DE",0.5114
same,UL114 (P16769) protein level,"timepoint 96, DE",0.7883
same,UL119/UL118 (P16739) protein level,"timepoint 96, DE",0.6695
same,UL128 (P16837) protein level,"timepoint 96, DE",0.1937
same,US8 (P09730) protein level,"timepoint 96, DE",0.6801
same,US9 (P09729) protein level,"timepoint 96, DE",0.7084
same,US12 (P09721) protein level,"timepoint 96, DE",0.4505
same,US13 (P09720) protein level,"timepoint 96, DE",0.8895
same,US14 (P09719) protein level,"timepoint 96, DE",0.3447
same,US18 (P69334) protein level,"timepoint 96, DE",0.9283
same,US22 (P09722) protein level,"timepoint 96, DE",0.6231
same,US23 (P09701) protein level,"timepoint 96, DE",0.5304
same,US24 (P09700) protein level,"timepoint 96, DE",0.485
same,US34 (P09709) protein level,"timepoint 96, DE",0.2125
same,gB (P06473) protein level,"timepoint 96, DE",0.285
same,IRS1 (P09715) protein level,"timepoint 96, IE",0.7821
same,TRS1 (P09695) protein level,"timepoint 96, IE",0.7146
same,UL13 (P16755) protein level,"timepoint 96, IE",0.2986
same,UL36 (P16767) protein level,"timepoint 96, IE",0.5836
same,UL37 (P16778) protein level,"timepoint 96, IE",0.8017
same,UL122 (P19893) protein level,"timepoint 96, IE",0.1642
same,UL123 (P13202) protein level,"timepoint 96, IE",0.4758
same,CVC1 (P16799) protein level,"timepoint 96, L",0.2252
same,GO (P16750) protein level,"timepoint 96, L",0.2443
same,IR11 (P16809) protein level,"timepoint 96, L",0.9075
same,MCP (P16729) protein level,"timepoint 96, L",0.1482
same,SCP (Q7M6N6) protein level,"timepoint 96, L",0.1246
same,TRM2 (P16792) protein level,"timepoint 96, L",0.19
same,UL22A (P16845) protein level,"timepoint 96, L",0.3485
same,UL25 (P16761) protein level,"timepoint 96, L",0.2353
same,UL29 (P16764) protein level,"timepoint 96, L",0.6674
same,UL30 (P16765) protein level,"timepoint 96, L",0.2355
same,UL31 (P16848) protein level,"timepoint 96, L",0.2462
same,UL43 (P16781) protein level,"timepoint 96, L",0.05313
same,UL52 (P16793) protein level,"timepoint 96, L",0.3224
same,UL76 (P16725) protein level,"timepoint 96, L",0.1513
same,UL79 (P16752) protein level,"timepoint 96, L",0.3299
same,UL80 (P16753) protein level,"timepoint 96, L",0.2674
same,UL82 (P06726) protein level,"timepoint 96, L",0.2566
same,UL87 (P16730) protein level,"timepoint 96, L",0.2646
same,UL88 (P16731) protein level,"timepoint 96, L",0.3926
same,UL94 (P16800) protein level,"timepoint 96, L",0.2776
same,UL99 (P13200) protein level,"timepoint 96, L",0.1753
same,UL103 (P16734) protein level,"timepoint 96, L",0.2489
